# Assay results reported in patent US20230096766A1, “AMINO ACID HAVING FUNCTIONAL GROUP CAPABLE OF INTERMOLECULAR HYDROGEN BONDING, PEPTIDE COMPOUND CONTAINING SAME AND METHOD FOR PRODUCTION THEREOF” (Chugai Seiyaku Kabushiki Kaisha, priority 2018, published 2023).
# *1 amine or outer side, *2 acyl side, *3 side chain or, on linkers, in order; H or OH if unused. Where a SMILES comes first, the peptide text is derived from it. Bridges are numbered along the chain shown (N, C = ends). [ ]: non-standard residue; d: D form. The star is where a group is joined. ξ: configuration not given here. dhPhe(4-CONHMe,3-OMe) = CNC(=O)c1ccc(CC[C@@H](N)C(=O)O)cc1OC; X11 = CNC(=O)c1ccc(CCN(CC(=O)[*:2])[*:1])cc1OC; NMePhe(3-Cl) = CN[C@@H](Cc1cccc(Cl)c1)C(=O)O; X12 = O=C([C@H](CCCC(O)C(F)(F)F)N[*:1])[*:2]; ξGln(SO2Me) = CS(=O)(=O)NC(=O)CCC(N)C(=O)O; Tyr(3-F) = N[C@@H](Cc1ccc(O)c(F)c1)C(=O)O; NMehPhe = CN[C@@H](CCc1ccccc1)C(=O)O; X6 = O=C([C@H](CCCCO)N[*:1])[*:2]; NMeF = CN[C@@H](Cc1ccccc1)C(=O)O; NMeGABA = CN(CCCC(=O)[*:2])[*:1]; NMeI = CC[C@H](C)[C@H](NC)C(=O)O; NMeβAla = CN(CCC(=O)[*:2])[*:1]; ξThr(3R) = C[C@@H](O)C(N)C(=O)O; CH2CH(OH)CF3 = OC(C*)C(F)(F)F; NMeL = CN[C@@H](CC(C)C)C(=O)O; Propyl(2R-OH) = C[C@@H](O)C*; NMeV = CN[C@H](C(=O)O)C(C)C; NMeAbu = CC[C@H](NC)C(=O)O; NMeA = CN[C@@H](C)C(=O)O; Piperidide = C1CCN(*)CC1; dAbu = CC[C@@H](N)C(=O)O; CH2CONHMe = CNC(=O)C*; Me2NCH2CH2 = CN(C)CC*; NBuGly = CCCCNCC(=O)O; NPrGly = CCCNCC(=O)O; X3 = C[C@H](O)C*; Sar = CNCC(=O)O; tBu = CC(C)(C)*
# Experiment: in vitro
# Details: human, Caco-2, Caco-2
row,Structure (SMILES),Papp [×10⁻⁶ cm/s]
1,CCCCN1CC(=O)N(C)[C@@H](C(C)C)C(=O)N[C@H](C(=O)N2CCCCC2)CC(=O)N(C)[C@@H](C)C(=O)N[C@@H](COCCN(C)C)C(=O)N(C)[C@@H](CC(C)C)C(=O)N(C)[C@@H](Cc2ccccc2)C(=O)N[C@@H](CC(C)C)C(=O)N(C)[C@@H](Cc2ccccc2)C(=O)N(C)[C@@H](CC(C)C)C(=O)N[C@@H]([C@@H](C)O)C1=O [pd56] ([NMeA]S(Me2NCH2CH2)[NMeL][NMeF]L[NMeF][NMeL]T[NBuGly][NMeV]D-Piperidide; lactam N-11),0.12
2,CCCCN1CC(=O)N(C)[C@@H](CC(C)C)C(=O)N[C@@H](COC(C)(C)C)C(=O)N(C)[C@@H](Cc2ccccc2)C(=O)N(C)[C@@H](C(C)C)C(=O)N[C@H](C(=O)N2CCCCC2)CC(=O)N[C@H](C(C)C)C(=O)N(C)[C@@H](Cc2ccccc2)C(=O)N[C@@H](COCCN(C)C)C(=O)N(C)[C@@H](CC(C)C)C(=O)N[C@@H]([C@@H](C)O)C1=O [pd53] ([dV][NMeF]S(Me2NCH2CH2)[NMeL]T[NBuGly][NMeL]S(tBu)[NMeF][NMeV]D-Piperidide; lactam N-11),0.14
3,CCCCN1CC(=O)N(C)[C@@H](Cc2ccccc2)C(=O)NC(CCC(=O)NS(C)(=O)=O)C(=O)N(C)[C@@H](CC(C)C)C(=O)N[C@@H]([C@@H](C)O)C(=O)N(CCCC)CC(=O)N(C)[C@@H](Cc2ccccc2)C(=O)N(C)[C@@H](CC(C)C)C(=O)N[C@@H](CC(C)C)C(=O)N(C)[C@@H](CC(C)C)C(=O)N[C@H](C(=O)N2CCCCC2)CC1=O (stereo partly drawn) [pd65] ([NBuGly][NMeF][ξGln(SO2Me)][NMeL]T[NBuGly][NMeF][NMeL]L[NMeL]D-Piperidide; lactam N-11),0.06

# Same assay, conditions: human, Caco-2, Caco-2 (cm/sec)
row,Structure (SMILES),Papp [×10⁻⁶ cm/s]
1,"CCCCN1CC(=O)N(C)[C@@H](Cc2ccccc2)C(=O)N(C)[C@@H](CC(C)C)C(=O)N[C@H](CCc2ccc(C(=O)NC)c(OC)c2)C(=O)N(C)[C@@H](CC(C)C)C(=O)N[C@H](C(=O)N2CCCCC2)CC(=O)N(C)CC(=O)N(C)[C@@H](CC(C)C)C(=O)N[C@@H]([C@@H](C)CC)C(=O)N(C)[C@@H](CC(C)C)C(=O)N[C@@H]([C@@H](C)O)C1=O [AP215] ([Sar][NMeL]I[NMeL]T[NBuGly][NMeF][NMeL][dhPhe(4-CONHMe,3-OMe)][NMeL]D-Piperidide; lactam N-11)",0.43
2,CC[C@H]1C(=O)N[C@@H]([C@@H](C)O)C(=O)N(CCc2ccc(C(=O)NC)c(OC)c2)CC(=O)N(C)[C@@H](CC(C)C)C(=O)N[C@@H](COC(C)(C)C)C(=O)N(C)[C@@H](CC(C)C)C(=O)N(C)[C@@H](CC(C)C)C(=O)N[C@H](C(=O)N2CCCCC2)CC(=O)N[C@H](C)C(=O)N(C)[C@@H](Cc2ccccc2)C(=O)N[C@@H](CC(C)C)C(=O)N1C [AP216] ([dA][NMeF]L[NMeAbu]T[X11][NMeL]S(tBu)[NMeL][NMeL]D-Piperidide; lactam N-11),0.99
3,CC[C@H](C)[C@H]1C(=O)N[C@@H]([C@@H](C)O)C(=O)N(C)CC(=O)N(C)[C@@H](CC(C)C)C(=O)N[C@H](C(=O)N2CCCCC2)CC(=O)N(C)[C@@H](C(C)C)C(=O)N[C@@H](CC(C)C)C(=O)N(C)[C@@H](CC(C)C)C(=O)N(C)[C@@H](Cc2ccccc2)C(=O)N[C@@H](COC[C@H](C)O)C(=O)N(C)[C@@H](Cc2ccccc2)C(=O)N1C [AP66] ([NMeV]L[NMeL][NMeF]S(X3)[NMeF][NMeI]T[Sar][NMeL]D-Piperidide; lactam N-11),0.68
4,CCCN1CC(=O)N(C)[C@@H](CC(C)C)C(=O)N[C@@H](CCCCO)C(=O)N(C)[C@@H](Cc2cccc(Cl)c2)C(=O)N(C)[C@@H](CC(C)C)C(=O)N[C@H](C(=O)N2CCCCC2)CC(=O)N[C@H](CC)C(=O)N(C)[C@@H](Cc2ccccc2)C(=O)N[C@@H](CC(C)C)C(=O)N(C)[C@@H](CC(C)C)C(=O)N[C@@H]([C@@H](C)O)C1=O [Compound B10] ([dAbu][NMeF]L[NMeL]T[NPrGly][NMeL][X6][NMePhe(3-Cl)][NMeL]D-Piperidide; lactam N-11),0.25
5,CCCCN1CC(=O)N(C)[C@@H](CC(C)C)C(=O)N[C@@H](COC(C)(C)C)C(=O)N(C)[C@@H](Cc2ccccc2)C(=O)N(C)[C@@H](CC(C)C)C(=O)N[C@H](C(=O)N2CCCCC2)CC(=O)N[C@H](C(C)C)C(=O)N(C)[C@@H](Cc2ccccc2)C(=O)N[C@@H](COC[C@@H](C)O)C(=O)N(C)[C@@H](CC(C)C)C(=O)N[C@@H]([C@@H](C)O)C1=O [AP71] ([dV][NMeF]S(Propyl(2R-OH))[NMeL]T[NBuGly][NMeL]S(tBu)[NMeF][NMeL]D-Piperidide; lactam N-11),0.71
6,CC(C)C[C@@H]1NC(=O)[C@H](C)N(C)C(=O)C[C@@H](C(=O)N2CCCCC2)NC(=O)[C@H](CC(C)C)N(C)C(=O)CN(C)C(=O)[C@H](Cc2ccc(O)c(F)c2)NC(=O)[C@H](CC(C)C)N(C)C(=O)[C@H](C)N(C)C(=O)[C@H](C)NC(=O)[C@H](Cc2ccccc2)N(C)C(=O)[C@H](CC(C)C)N(C)C1=O [pd120] ([NMeA]L[NMeL][NMeF]A[NMeA][NMeL][Tyr(3-F)][Sar][NMeL]D-Piperidide; lactam N-11),0.23
7,CCCCN1CC(=O)N(C)[C@@H](C)C(=O)N[C@@H](COC(C)(C)C)C(=O)N(C)[C@@H](CC(C)C)C(=O)N(CCc2ccc(C(=O)NC)c(OC)c2)CC(=O)N[C@H](C(=O)N2CCCCC2)CC(=O)N[C@H](CC(C)C)C(=O)N(C)[C@@H](Cc2ccccc2)C(=O)N[C@@H](CC(C)C)C(=O)N(C)[C@@H](CC(C)C)C(=O)N[C@@H]([C@@H](C)O)C1=O [AP220] ([dL][NMeF]L[NMeL]T[NBuGly][NMeA]S(tBu)[NMeL][X11]D-Piperidide; lactam N-11),0.8
8,CC[C@H](C)[C@H]1C(=O)N[C@@H](Cc2c[nH]c3ccccc23)C(=O)N(C)CC(=O)N(C)[C@@H](C)C(=O)N[C@H](C(=O)N2CCCCC2)CC(=O)N(C)[C@@H](C)C(=O)N[C@@H](CC(C)C)C(=O)N(C)[C@@H](CC(C)C)C(=O)N(C)[C@@H](CC(C)C)C(=O)N[C@@H](C)C(=O)N(C)[C@@H](CC(C)C)C(=O)N1C [pd101] ([NMeA]L[NMeL][NMeL]A[NMeL][NMeI]W[Sar][NMeA]D-Piperidide; lactam N-11),0.13
9,"CNC(=O)c1ccc(CC[C@H]2NC(=O)[C@H](CC(C)C)N(C)C(=O)CN(C)C(=O)C([C@@H](C)O)NC(=O)[C@H](CC(C)C)N(C)C(=O)[C@H](CC(C)C)NC(=O)[C@H](Cc3ccccc3)N(C)C(=O)[C@@H](C(C)C)NC(=O)C[C@@H](C(=O)N3CCCCC3)NC(=O)[C@H](CC(C)C)N(C)C(=O)[C@H](CC(C)C)N(C)C2=O)cc1OC (stereo partly drawn) [AP208] ([dV][NMeF]L[NMeL][ξThr(3R)][Sar][NMeL][dhPhe(4-CONHMe,3-OMe)][NMeL][NMeL]D-Piperidide; lactam N-11)",0.6

# Same assay, conditions: human, Caco-2, Caco-2 (cm/sec) Papp
row,Structure (SMILES),Papp [×10⁻⁶ cm/s]
1,CC(C)C[C@@H]1NC(=O)[C@H](Cc2ccccc2)N(C)C(=O)[C@H](C(C)C)N(C)C(=O)C[C@@H](C(=O)N2CCCCC2)NC(=O)[C@H]([C@@H](C)O)NC(=O)[C@H](Cc2ccccc2)N(C)C(=O)[C@H](Cc2ccccc2)NC(=O)[C@H](Cc2ccccc2)N(C)C(=O)CN(C)C(=O)[C@H](C)N(C)C(=O)[C@H](CC(C)C)N(C)C1=O [pd229] ([NMeV][NMeF]L[NMeL][NMeA][Sar][NMeF]F[NMeF]TD-Piperidide; lactam N-11),0.41
2,CC(C)C[C@@H]1NC(=O)[C@H](Cc2ccccc2)N(C)C(=O)C[C@@H](C(=O)N2CCCCC2)NC(=O)[C@H](CC(C)C)N(C)C(=O)CN(C)C(=O)[C@H]([C@@H](C)O)NC(=O)[C@H](Cc2ccccc2)N(C)C(=O)[C@H](Cc2ccccc2)N(C)C(=O)[C@H](CC(C)C)NC(=O)[C@H](Cc2ccccc2)N(C)C(=O)[C@H](CC(C)C)N(C)C1=O [pd227] ([NMeF]L[NMeL][NMeF]L[NMeF][NMeF]T[Sar][NMeL]D-Piperidide; lactam N-11),0.61
3,CC[C@H](C)[C@@H]1NC(=O)[C@H](Cc2ccccc2)N(C)C(=O)[C@H](C)N(C)C(=O)[C@H](CC(C)C)N(C)C(=O)[C@H](Cc2ccccc2)N(C)C(=O)CCN(C)C(=O)C[C@@H](C(=O)N(C)[C@@H](Cc2ccccc2)C(=O)N(C)[C@@H](Cc2ccccc2)C(=O)N[C@@H](C)C(=O)N2CCCCC2)NC(=O)[C@H]([C@@H](C)O)NC(=O)[C@H](CC(C)C)N(C)C(=O)[C@H](CC(C)C)N(C)C1=O [pd239] ([NMeβAla][NMeF][NMeL][NMeA][NMeF]I[NMeL][NMeL]TD[NMeF][NMeF]A-Piperidide; lactam N-10),0.065

# Same assay, conditions: human, Caco-2, Caco-2 (membrane permeability)
row,Structure (SMILES),Papp [×10⁻⁶ cm/s]
1,CNC(=O)COC[C@@H]1NC(=O)[C@H](CC(C)C)N(C)C(=O)C[C@@H](C(=O)N2CCCCC2)NC(=O)[C@H](CC(C)C)N(C)C(=O)CN(C)C(=O)[C@H]([C@@H](C)O)NC(=O)[C@H](CC(C)C)N(C)C(=O)[C@H](CCc2ccccc2)N(C)C(=O)[C@H](CC(C)C)NC(=O)[C@H](Cc2ccccc2)N(C)C(=O)[C@H](CC(C)C)N(C)C1=O [Compound I03] ([NMeL]S(CH2CONHMe)[NMeL][NMeF]L[NMehPhe][NMeL]T[Sar][NMeL]D-Piperidide; lactam N-11),0.25
2,CC[C@H](C)[C@@H]1NC(=O)[C@H](CC(C)C)N(C)C(=O)CCCN(C)C(=O)C[C@@H](C(=O)N2CCCCC2)NC(=O)[C@H](CC(C)C)N(C)C(=O)[C@H](CC(C)C)N(C)C(=O)[C@H]([C@@H](C)O)NC(=O)[C@H](CC(C)C)N(C)C(=O)[C@H](COCC(O)C(F)(F)F)NC(=O)[C@H](Cc2ccccc2)N(C)C(=O)[C@H](Cc2ccccc2)N(C)C1=O (stereo partly drawn) [Compound C03] ([NMeGABA][NMeL]I[NMeF][NMeF]S(CH2CH(OH)CF3)[NMeL]T[NMeL][NMeL]D-Piperidide; lactam N-11),0.5
3,CC[C@H](C)[C@H]1C(=O)N[C@@H]([C@@H](C)O)C(=O)N(C)CC(=O)N(C)[C@@H](CC(C)C)C(=O)N[C@H](C(=O)N2CCCCC2)CC(=O)N(C)[C@@H](C(C)C)C(=O)N[C@@H](CCCC(O)C(F)(F)F)C(=O)N(C)[C@@H](CC(C)C)C(=O)N(C)[C@@H](Cc2ccccc2)C(=O)N[C@@H](CC(C)C)C(=O)N(C)[C@@H](Cc2ccccc2)C(=O)N1C (stereo partly drawn) [Compound D08] ([NMeV][X12][NMeL][NMeF]L[NMeF][NMeI]T[Sar][NMeL]D-Piperidide; lactam N-11),0.53
